The source of these data is patent publication US7049133B2, “Regulation of gene expression through manipulation of mRNA splicing and its uses” (Yissum Research Development Company of the Hebrew …, priority 1998, dated 2006).

Read-outs that look alike come from different tables or passages of the source.

In data set [1] the test system is splicing of TNF-α precursor transcripts. In words: RNase protection analysis of TNF-α precursor transcripts and spliced mRNA in transfected BHK-21 cells. In kind it is cell-based, hamster. The method, then: (§1) BHK-21 cells were grown in DMEM medium supplemented with 2 mM glutamine, 40 mM NaHCO3, 10 mM Hepes, pH 7.3, […] of penicillin and streptomycin, […] nystatin and 10% fetal calf serum. 2-AP (Sigma) was added at 10 mM unless otherwise indicated. To prepare a stock solution of 0.15 M, 2-AP was dissolved in phosphate-buffered saline by heating at 70° C. for 10 min.
(§2) In the experiments of FIGS. 2 and 3, monolayers of BHK-21 cells were seeded at a density of 1−2×10^6 cells/8-cm Petri dish and grown overnight; 4 h before cotransfection, culture medium was replaced. A mixture of […] of test DNA construct and 4 mg salmon sperm DNA carrier, and, when included, 2 mg pSV2CAT DNA [47], was permeated into cells by the calcium phosphate-DNA coprecipitation technique. After 12–18 h, culture medium was replaced with fresh medium prewarmed to 37° C. In the experiments of FIGS. 6 and 7, LipofectAmine (Life Technologies) was employed following instructions of the supplier, using 1 mg of each DNA for transfection.
(§3) For RNase protection analysis, DNA was subcloned in pBS (Stratagene) under the T3 or T7 promoter and transcribed using [a-^32P]UTP to generate labeled anti-sense RNA transcripts. A TNF-α RNA probe (map: FIG. 2A) was generated from a 821-bp EcoRI-Sau3AI fragment containing the 5′-flank, 151 -bp 5′-UTR, and first 6 codons. A second TNF-α RNA probe was generated from a 823-bp EcoRI-EcoRI 3′-UTR fragment from which a 5′-terminal fragment was removed by BstEII digestion, leaving 83 3′-terminal bp of the 3′-UTR and 250 bp beyond the 3′ cleavage site (map: FIG. 2A). A third TNF-α RNA probe (map: FIG. 2B) was generated from a 700-bp Sau3AI-Sau3AI fragment consisting of 10 bp of intron 2, exon 3, intron 3 and part of exon 4. A TNF-β probe was generated from a 637-bp Bsu36I-EcoRI DNA fragment, containing part of intron 3 and 571 bp of exon 4 (map: FIG. 3A). A second TNF-β RNA probe (map: FIG. 3B) was generated from a 324-bp EcoRI-Bsu36I DNA fragment, containing part of exon 1, exon 2, exon 3 and a portion of intron 3. A probe of 250-nt, generated from a HindIII-EcoRI fragment of the coding region of the CAT gene, was used to quantitate CAT mRNA. Intactness of RNA probes was assessed by polyacrylamide gel electrophoresis.
(§4) Total RNA was isolated using guanidinium isothiocyanate/CsC1. RNase protection analysis with RNases A and T1 was performed using genomic TNF-α and TNF-β riboprobes and CAT or actin probes as described. Protected RNA fragments were separated by electrophoresis in 5% polyacrylamide/8 M urea gels. Size markers in FIG. 3 were generated by MspI digestion of pGEM-3 DNA and filling in with [a-^32P]dCTP [12]. Size marker in FIG. 7 is a 100-bp DNA ladder (Fermentas) that was dephosphorylated and 5′ end-labeled with [γ-^32P]ATP.

The subject of data set [2] is splicing of TNF-β precursor transcripts. Nature of the data set: RNase protection analysis of TNF-β precursor transcripts and spliced RNA in transfected BHK-21 cells. In kind it is cell-based, hamster. The method, then: as §1, §2, §3, §4
For a further data set, the system named is CAT mRNA. Nature of the data set: RNase protection analysis of CAT mRNA in transfected BHK-21 cells. In kind it is cell-based. The method, then: as §1, §2
as §3, with “A second TNF-β RNA probe (map: FIG. 3B) was generated from a 324-bp EcoRI-Bsu36I DNA fragment, containing part of exon 1, exon 2, exon 3 and a portion of intron 3.” left out, “electrophoresis. […]” for “electrophoresis.”

For a further data set, the target named is T1, PKR (Oryctolagus cuniculus, UniProt A0A0U2KCE0).
T1 construct: phosphorylation of the PKR (68 kDa) and eIF2α (38 kDa) bands in the ribosome fraction of rabbit reticulocyte lysate; from tissue; host or cells: ribosome fraction of rabbit reticulocyte lysate
T1 sequence (A0A0U2KCE0 1-547): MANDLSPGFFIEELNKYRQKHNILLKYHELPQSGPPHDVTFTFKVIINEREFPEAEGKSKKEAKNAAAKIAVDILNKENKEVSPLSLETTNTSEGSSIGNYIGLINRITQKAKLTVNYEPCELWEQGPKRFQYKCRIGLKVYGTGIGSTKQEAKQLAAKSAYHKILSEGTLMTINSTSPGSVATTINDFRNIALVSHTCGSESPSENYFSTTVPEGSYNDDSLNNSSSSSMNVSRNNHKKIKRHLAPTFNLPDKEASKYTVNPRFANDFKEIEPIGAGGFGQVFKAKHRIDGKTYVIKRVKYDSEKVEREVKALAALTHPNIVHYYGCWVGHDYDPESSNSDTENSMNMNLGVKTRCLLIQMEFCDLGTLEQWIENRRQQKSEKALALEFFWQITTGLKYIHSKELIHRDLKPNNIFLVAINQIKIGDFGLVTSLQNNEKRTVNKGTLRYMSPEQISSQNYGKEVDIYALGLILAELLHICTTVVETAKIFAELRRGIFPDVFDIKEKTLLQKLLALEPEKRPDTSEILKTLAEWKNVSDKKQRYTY
In words: Phosphorylation of PKR and eIF2α in ribosome fraction from rabbit reticulocyte lysate. In kind it is biochemical. The text has this: A 823-bp EcoRI-EcoRI TNF-α gene fragment comprised of 573 3′-terminal bp of the 3′-UTR, the polyadenylation site and downstream sequences from pTNF-α was inserted into pBS under the T7 promoter. To obtain 3′-UTR sense transcripts, the DNA was digested with PstI (EP), NcoI (EN), AflIII (EA), SspI (ES) or XmnI (EX) and then transcribed in vitro. A 616-bp NcoI-EcoRI TNF-α gene fragment comprised of 366 3′-terminal bp of the 3′-UTR, the polyadenylation site and downstream sequences from pTNF-α was inserted into pBS under the T7 promoter. To obtain 3′-UTR sense transcripts, the DNA was digested with AflIII (NA) or XmnI (NX) and then transcribed in vitro. A 572-bp EcoRI-PstI TNF-β gene fragment comprised of 389 3′-terminal bp of the 3′-UTR, the polyadenylation site and downstream sequences from pTNF-β was inserted into pBS under the T7 promoter. To obtain 3′-UTR sense transcript, the DNA was digested with PstI and then transcribed in vitro. EP RNA transcript was purified by agarose gel electrophoresis, followed by chromatography on CF-11 cellulose, washing with ethanol and eluting with water as described. Phosphorylation of PKR and eIF2α chain was assayed by incubating polyI:polyC or 3′-UTR transcript with the ribosome fraction from rabbit reticulocyte lysate in the presence of [γ-^32P]ATP for 20 min at 30° C. as described and subjecting the reaction mixture to electrophoresis in 10% polyacryamide gels containing sodium dodecyl sulfate.

The test system of another data set is BHK-21 cells. Format: cell-based, baby hamster. The method, then:
as §1, §2

The test system of data set [3] is primary human lymphoid cells. Conditions: cited from earlier work.
Where [4] appears, read: pTNF-α(3′UTR-β), 2-AP from 16 h.
[5] abbreviates: pTNF-α, 2-AP 10 mM from 18 h after transfection.
[6] abbreviates: pTNF-β(3′UTR-α), 2-AP in presence of CHX.
The mark [7] stands for this setting: pTNF-β(3′UTR-α), intron 3/exon 4 probe, 2-AP from 16 h.

Take `Nc1ncc2[nH]cnc2n1` [2-AP, 2-Aminopurine]: in data set [1] (pTNF-α(3′UTR-αEP), 2-AP added at 20 h), the mRNA result is recorded as “decline”. In addition, the “Rise in precursor transcripts” value in data set [1] (pTNF-α(3′UTR-αEP), 2-AP added at 20 h, at 53 h) is recorded as “up to 36 fold”. In data set [1] (setting [4]), the “Expression of spliced mRNA (341-nt band)” value is listed as “failed to decline” and the “Precursor transcripts (700 nt)” value is “nor did precursor transcripts (700 nt) increase”. In data set [1] (pTNF-α(Δ3′UTR), 2-AP 10 mM), the “Accumulation of precursor transcripts” value is given as “nor was there any enhanced accumulation” and the “Expression of mRNA” value is listed as “no longer inhibited”. Also, the “Expression of TNF-α RNA transcripts” value in data set [1] (pTNF-α, 2-AP 2 mM from time of transfection) is “reduction”. The “Expression of TNF-α RNA transcripts” value in data set [1] (pTNF-α, 2-AP 6 mM from time of transfection) was “full inhibition”. Besides, in data set [1] (setting [5]), the “Expression of spliced TNF-α mRNA (341-nt band)” value is “strongly inhibited” and the “TNF-α precursor transcripts (700-nt band)” value is listed as “enhanced accumulation”. Also, the “Sensitivity of splicing of TNF-β precursor transcripts carrying an inverted TNF-α3′-UTR sequence, compared with TNF-β(3′UTR-α) transcripts” value in data set [2] is listed as “as sensitive”. Moreover, in data set [2] (setting [6]), the “Generation of spliced RNA” value is “inhibited” and the Precursor transcripts result is “increased”. In data set [2] (setting [7]), the Precursor transcripts entry is recorded as “strong increase” and the “Spliced RNA” value was “concomitant decline”. Also, in data set [2] (pTNF-β(3′UTR-αEP), 2-AP added at 20 h), the “Spliced mRNA versus precursor transcripts” value is listed as “pronounced shift from spliced mRNA to precursor transcripts”. Moreover, in data set [2] (pTNF-β(Δ3′UTR)), the “Expression of spliced TNF-β RNA” value is recorded as “insensitive”. In data set [2] (pTNF-β, exon 1-3/intron 3 probe, 2-AP from 12 h), the “Spliced RNA (214-nt band) and precursor transcripts” value was “decrease”. In data set [2] (pTNF-β, intron 3/exon 4 probe, 2-AP from 12 h), the “TNF-β precursor transcripts (637 nt) and mRNA (571 nt)” value was “precursors and mRNA both declined”. Besides, in the data set on CAT mRNA (p5′CAT(3′UTR-α)), the “Expression of CAT mRNA carrying TNF-α3′-UTR portion” value is reported as “unaffected”. The “Expression of CAT mRNA” value in the data set on CAT mRNA (p5′CAT, 10 mM 2-AP) is on record as “proceeded unabated”. Moreover, the “Expression of a cotransfected CAT gene” value with CAT mRNA (pSV2CAT cotransfected with pTNF-α, 2-AP 10 mM) is “not affected”. Further, the “Sensitivity of PKR activation by 3′UTR-αEP RNA to 2-AP, compared with activation by dsRNA” value on PKR (1 mM 2-AP) was “less sensitive”. For the same molecule, the “Phosphorylation of PKR and eIF2α driven by purified 3′UTR-αEP RNA” value on PKR (1 and 5 mM of 2-AP) is on record as “inhibited progressively”. Moreover, the Cell viability entry in the data set on BHK-21 cells (FIG. 2 experiments, 2-AP up to 10 mM) was “remained constant”. Further, in the data set with BHK-21 cells (FIG. 3 experiments, 2-AP and CHX present), the Cell viability result is given as “remained constant”. For the same molecule, the “TNF-β precursor transcripts and spliced mRNA” value in data set [3] (lymphoid cells, increasing doses) is “coordinate decline”. The “Expression of TNF-α mRNA” value in data set [3] (primary human lymphoid cells) is listed as “blocks expression”.
Take `C[C@@H]1C[C@@H]([C@H](O)CC2CC(=O)NC(=O)C2)C(=O)[C@@H](C)C1` [CHX]: in data set [2] (pTNF-β(3′UTR-α), CHX from 16 h), the “Expression of both precursor transcripts and spliced RNA” value is listed as “enhanced expression”.

B1: 3′UTR-αEP RNA: T7 RNA transcript of the 104-bp EcoRI-PstI fragment of the human TNF-α3′-UTR (2-APRE, SEQ ID NO:1) (nucleic acid, listed as Homo sapiens)
chain: GAATTCAAACTGGGGCCTCCAGAACTCACTGGGGCCTACAGCTTTGATCCCTGACATCTGGAATCTGGAGACCAGGGAGCCTTTGGTTCTGGCCAGAATGCTGC
modifications: RNA, all phosphodiester, T or U not given here
Take B1: in the data set with PKR, the “Induced phosphorylation of PKR and eIF2α, dependence on RNA concentration” value is on record as “at low but not high RNA concentrations”. Also, the “Activation of PKR, judged by phosphorylation of PKR (68 kDa) and eIF2α (38 kDa) bands” value with PKR (RNA 0.05 ng/ml, compared with dsRNA) was “activated PKR even more strongly than dsRNA”. For the same molecule, the “Molar specific activity as inducer of PKR phosphorylation” value in the data set with PKR (each TNF RNA at 0.05 ng/ml) is reported as “highest molar specific activity”.
